The record followed here is ChEMBL document CHEMBL3991601, “The target landscape of clinical kinase drugs” (Science, 2017).

Activity calls are given as the source filed them. A value given as a limit tells only on which side of the number the result lay.

By Kd is commonly meant the concentration at which binding is half-saturated.

Test [1] has as its target Mitogen-activated protein kinase kinase kinase kinase 4 (Homo sapiens, UniProt O95819).
The target in test [2] is T1, Serine/threonine-protein kinase Nek2 (Homo sapiens, UniProt P51955).
T1 sequence (P51955 whole entry): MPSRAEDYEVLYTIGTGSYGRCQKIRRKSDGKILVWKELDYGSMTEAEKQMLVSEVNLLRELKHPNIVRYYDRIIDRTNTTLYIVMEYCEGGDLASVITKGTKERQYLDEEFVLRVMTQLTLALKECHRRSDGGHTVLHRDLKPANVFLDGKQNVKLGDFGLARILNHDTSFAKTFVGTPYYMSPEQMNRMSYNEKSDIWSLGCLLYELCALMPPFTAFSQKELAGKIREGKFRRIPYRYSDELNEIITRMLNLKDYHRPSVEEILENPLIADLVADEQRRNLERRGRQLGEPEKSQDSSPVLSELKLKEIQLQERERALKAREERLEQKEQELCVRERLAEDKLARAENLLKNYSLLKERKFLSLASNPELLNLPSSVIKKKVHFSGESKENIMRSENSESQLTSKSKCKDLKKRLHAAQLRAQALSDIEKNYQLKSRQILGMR

Test [3] has as its target T2, Serine/threonine-protein kinase NLK (Homo sapiens, UniProt Q9UBE8).
T2 sequence (Q9UBE8 whole entry): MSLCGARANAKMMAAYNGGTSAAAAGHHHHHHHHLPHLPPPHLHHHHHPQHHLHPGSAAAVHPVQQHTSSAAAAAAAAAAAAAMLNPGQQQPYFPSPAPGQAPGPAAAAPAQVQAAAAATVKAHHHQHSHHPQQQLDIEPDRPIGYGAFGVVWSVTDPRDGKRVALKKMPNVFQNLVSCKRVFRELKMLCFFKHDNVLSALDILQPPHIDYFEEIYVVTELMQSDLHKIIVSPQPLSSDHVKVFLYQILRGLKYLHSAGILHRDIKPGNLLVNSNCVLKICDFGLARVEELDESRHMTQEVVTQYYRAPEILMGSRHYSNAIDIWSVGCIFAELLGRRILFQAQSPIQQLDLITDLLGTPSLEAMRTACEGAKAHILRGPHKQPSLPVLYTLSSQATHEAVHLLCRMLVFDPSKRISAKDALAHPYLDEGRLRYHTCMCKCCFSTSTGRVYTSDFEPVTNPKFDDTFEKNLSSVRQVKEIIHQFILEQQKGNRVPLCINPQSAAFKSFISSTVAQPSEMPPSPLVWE

In test [4] the target is T3, Thyroid hormone receptor-associated protein 3 (Homo sapiens, UniProt Q9Y2W1).
T3 sequence (Q9Y2W1 whole entry): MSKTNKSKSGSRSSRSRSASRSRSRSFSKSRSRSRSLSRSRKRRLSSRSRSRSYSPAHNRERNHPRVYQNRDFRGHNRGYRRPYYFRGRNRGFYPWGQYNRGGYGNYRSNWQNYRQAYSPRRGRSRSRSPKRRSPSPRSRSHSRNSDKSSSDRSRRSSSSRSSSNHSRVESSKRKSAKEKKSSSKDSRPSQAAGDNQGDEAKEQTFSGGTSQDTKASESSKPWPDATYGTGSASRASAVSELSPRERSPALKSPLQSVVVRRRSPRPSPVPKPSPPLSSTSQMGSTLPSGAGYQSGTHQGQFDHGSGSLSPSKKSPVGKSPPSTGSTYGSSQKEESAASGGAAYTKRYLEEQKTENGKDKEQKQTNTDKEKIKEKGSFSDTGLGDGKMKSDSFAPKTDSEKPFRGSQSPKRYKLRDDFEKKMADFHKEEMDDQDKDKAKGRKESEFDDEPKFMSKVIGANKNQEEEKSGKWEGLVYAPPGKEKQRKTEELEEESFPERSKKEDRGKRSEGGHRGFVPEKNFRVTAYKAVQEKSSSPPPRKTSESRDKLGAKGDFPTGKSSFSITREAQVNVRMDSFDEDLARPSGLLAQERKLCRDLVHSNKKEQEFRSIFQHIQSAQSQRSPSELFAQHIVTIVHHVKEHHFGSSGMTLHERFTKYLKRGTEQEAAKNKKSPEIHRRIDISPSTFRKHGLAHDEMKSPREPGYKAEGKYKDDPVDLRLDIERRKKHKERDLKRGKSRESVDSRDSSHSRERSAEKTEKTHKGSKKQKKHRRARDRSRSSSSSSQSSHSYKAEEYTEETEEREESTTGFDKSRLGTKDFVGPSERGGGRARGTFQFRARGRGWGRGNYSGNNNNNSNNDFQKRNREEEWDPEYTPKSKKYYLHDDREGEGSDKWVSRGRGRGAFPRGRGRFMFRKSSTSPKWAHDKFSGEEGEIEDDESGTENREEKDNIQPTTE

Test [5] deals with T4, Tyrosine--tRNA ligase, cytoplasmic (Homo sapiens, UniProt P54577).
T4 sequence (P54577 whole entry): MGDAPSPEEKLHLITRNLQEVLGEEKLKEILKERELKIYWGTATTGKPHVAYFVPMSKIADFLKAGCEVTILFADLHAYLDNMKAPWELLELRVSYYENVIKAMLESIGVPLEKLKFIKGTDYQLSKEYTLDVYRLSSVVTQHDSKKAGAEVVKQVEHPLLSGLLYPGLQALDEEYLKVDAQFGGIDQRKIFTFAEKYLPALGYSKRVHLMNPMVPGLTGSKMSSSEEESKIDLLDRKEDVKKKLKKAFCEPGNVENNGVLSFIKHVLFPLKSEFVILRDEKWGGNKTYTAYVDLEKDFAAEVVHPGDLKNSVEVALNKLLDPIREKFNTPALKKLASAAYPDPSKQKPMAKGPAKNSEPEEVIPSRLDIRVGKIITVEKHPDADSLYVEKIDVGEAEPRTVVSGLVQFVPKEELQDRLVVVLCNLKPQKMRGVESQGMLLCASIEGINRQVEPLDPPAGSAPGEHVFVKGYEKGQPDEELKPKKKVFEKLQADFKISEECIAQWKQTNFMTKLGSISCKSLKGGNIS
Also: in the data inactive means no Kd found up to 30 µM.

Mitogen-activated protein kinase kinase kinase kinase 4, sequence (O95819 whole entry): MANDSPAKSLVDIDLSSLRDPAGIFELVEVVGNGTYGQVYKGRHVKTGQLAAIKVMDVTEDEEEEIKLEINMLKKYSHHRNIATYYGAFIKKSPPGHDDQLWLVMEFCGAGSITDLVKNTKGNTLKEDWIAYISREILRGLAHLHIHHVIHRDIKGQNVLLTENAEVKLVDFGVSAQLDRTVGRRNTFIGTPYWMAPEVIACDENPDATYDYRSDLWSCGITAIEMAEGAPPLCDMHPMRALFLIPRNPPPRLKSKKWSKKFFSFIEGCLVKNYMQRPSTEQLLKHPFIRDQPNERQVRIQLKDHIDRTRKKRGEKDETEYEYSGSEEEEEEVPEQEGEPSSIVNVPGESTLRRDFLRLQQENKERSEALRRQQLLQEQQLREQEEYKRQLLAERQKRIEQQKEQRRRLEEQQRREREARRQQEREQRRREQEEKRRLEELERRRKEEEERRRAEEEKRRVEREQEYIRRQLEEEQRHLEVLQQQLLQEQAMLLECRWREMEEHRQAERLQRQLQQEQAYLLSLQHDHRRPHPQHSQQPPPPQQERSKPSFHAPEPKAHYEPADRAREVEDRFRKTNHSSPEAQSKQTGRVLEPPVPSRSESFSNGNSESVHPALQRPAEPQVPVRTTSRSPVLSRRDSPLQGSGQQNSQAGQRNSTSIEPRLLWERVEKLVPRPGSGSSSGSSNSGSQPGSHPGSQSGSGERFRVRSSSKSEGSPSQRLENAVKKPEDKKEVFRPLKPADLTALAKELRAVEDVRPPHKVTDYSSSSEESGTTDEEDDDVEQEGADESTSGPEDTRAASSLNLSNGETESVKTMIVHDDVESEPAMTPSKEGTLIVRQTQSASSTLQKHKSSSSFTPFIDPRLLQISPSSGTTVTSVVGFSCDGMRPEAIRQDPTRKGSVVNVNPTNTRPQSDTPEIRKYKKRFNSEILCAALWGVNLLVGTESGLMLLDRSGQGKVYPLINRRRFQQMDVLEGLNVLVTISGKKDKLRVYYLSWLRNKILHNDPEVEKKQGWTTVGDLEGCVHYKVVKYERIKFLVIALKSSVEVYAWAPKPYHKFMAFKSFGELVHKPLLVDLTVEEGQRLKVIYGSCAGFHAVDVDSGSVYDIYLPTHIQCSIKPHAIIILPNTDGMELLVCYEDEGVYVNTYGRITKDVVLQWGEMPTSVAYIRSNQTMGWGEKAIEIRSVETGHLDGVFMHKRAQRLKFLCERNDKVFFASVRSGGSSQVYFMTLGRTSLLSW

On to `COc1ccc(S(=O)(=O)N(C(C)=O)c2ccccc2/C=C/c2cc[n+]([O-])cc2)cc1` [HMN-214], for which the Kd in test [1], in test [2], in test [3], in test [4] and in test [5] was > 30 µM (inactive) in each case.

Take `NC1(c2ccc(-c3nc4ccn5c(=O)[nH]nc5c4cc3-c3ccccc3)cc2)CCC1` [MK-2206]: the Kd in test [1], in test [2], in test [3], in test [4] and in test [5] was > 30 µM (inactive) in each case.

Turning to `Cn1cc(-c2cnc3ccc4ccc(CS(=O)(=O)NCc5ccccn5)cc4c(=O)c3c2)cn1` [MK-8033], the Kd in test [1], in test [2], in test [3], in test [4] and in test [5] was > 30 µM (inactive) throughout.

Consider `FC(F)(F)c1ccc(/C=C/c2nc(COc3ccc(CCCCn4ccnn4)cc3)co2)cc1` [MUBRITINIB], for which the Kd in test [1], in test [2], in test [3], in test [4] and in test [5] was > 30 µM (inactive) in each case.

For the compound `CCCCCCCCCCCCCCCCCCOP(=O)([O-])OC1CC[N+](C)(C)CC1` [PERIFOSINE], the Kd in test [1], in test [2], in test [3], in test [4] and in test [5] was > 30 µM (inactive) in each case.

Take `Cc1nc(Nc2n[nH]c3c2CN(C(=O)N[C@H](CN(C)C)c2ccccc2)C3(C)C)c2sccc2n1` [PF-03758309]: the Kd in test [1], in test [2], in test [3], in test [4] and in test [5] was > 30 µM (inactive) throughout.

Regarding `Cc1cnc(NC(=O)Nc2cc(Br)c(C)cc2OC[C@@H]2CNCCO2)cn1` [RABUSERTIB], the Kd in test [1], in test [2], in test [3], in test [4] and in test [5] was > 30 µM (inactive) in each case.

For `CNC(=O)c1cc(Oc2ccc(NC(=O)Nc3cc(C(C)(C)C)nn3-c3ccc4ncccc4c3)c(F)c2)ccn1` [REBASTINIB], the Kd in test [1] was 2.71 µM (active); in test [2], > 30 µM (inactive); in test [3], > 30 µM (inactive); in test [4], > 30 µM (inactive); in test [5] it was > 30 µM (inactive).

`CO[C@H]1C[C@@H]2CC[C@@H](C)[C@@](O)(O2)C(=O)C(=O)N2CCCC[C@H]2C(=O)O[C@H]([C@H](C)C[C@@H]2CC[C@@H](OP(C)(C)=O)[C@H](OC)C2)CC(=O)[C@H](C)/C=C(\C)[C@@H](O)[C@@H](OC)C(=O)[C@H](C)C[C@H](C)/C=C/C=C/C=C/1C` [RIDAFOROLIMUS]: the Kd in test [1], in test [2], in test [3], in test [4] and in test [5] was > 30 µM (inactive) in each case.

For `N#CC1(c2ccc(NC(=O)c3cccnc3NCc3ccncc3)cc2)CCCC1` [RIVOCERANIB], the Kd in test [1], in test [2], in test [3], in test [4] and in test [5] was > 30 µM (inactive) each time.

For `O=c1[nH]ccc2cc(OC3CCNCC3)ccc12` [SAR-407899 FREE BASE], the Kd in test [1], in test [2], in test [3], in test [4] and in test [5] was > 30 µM (inactive) throughout.

`CN1CCN(CCOc2cc(OC3CCOCC3)c3c(Nc4c(Cl)ccc5c4OCO5)ncnc3c2)CC1` [SARACATINIB]: the Kd in test [1] is 1.12 µM (active); in test [2], > 30 µM (inactive); in test [3] it was > 30 µM (inactive); in test [4], > 30 µM (inactive); in test [5] it was > 30 µM (inactive).

Consider `Cn1cc(-c2cnn3c(N)c(Br)c([C@@H]4CCCNC4)nc23)cn1` [SCH-900776], for which the Kd in test [1], in test [2], in test [3], in test [4] and in test [5] was > 30 µM (inactive) in each case.

For the compound `CO[C@H]1C[C@@H]2CC[C@@H](C)[C@@](O)(O2)C(=O)C(=O)N2CCCC[C@H]2C(=O)O[C@H]([C@H](C)C[C@@H]2CC[C@@H](O)[C@H](OC)C2)CC(=O)[C@H](C)/C=C(\C)[C@@H](O)[C@@H](OC)C(=O)[C@H](C)C[C@H](C)/C=C/C=C/C=C/1C` [SIROLIMUS], the Kd in test [1], in test [2], in test [3], in test [4] and in test [5] was > 30 µM (inactive) in each case.

On to `CO[C@H]1C[C@@H]2CC[C@@H](C)[C@@](O)(O2)C(=O)C(=O)N2CCCC[C@H]2C(=O)O[C@H]([C@H](C)C[C@@H]2CC[C@@H](OC(=O)C(C)(CO)CO)[C@H](OC)C2)CC(=O)[C@H](C)/C=C(\C)[C@@H](O)[C@@H](OC)C(=O)[C@H](C)C[C@H](C)/C=C/C=C/C=C/1C` [TEMSIROLIMUS], for which the Kd in test [1], in test [2], in test [3], in test [4] and in test [5] was > 30 µM (inactive) each time.

Consider `COc1cc2c(Nc3ccc(Cl)c(Cl)c3F)ncnc2cc1OC[C@@H]1C[C@@H]2CN(C)C[C@@H]2C1` [TESEVATINIB], for which the Kd in test [1] was 1.91 µM (active); in test [2], > 30 µM (inactive); in test [3] it was > 30 µM (inactive); in test [4], > 30 µM (inactive); in test [5], > 30 µM (inactive).

`O=C(Cc1ccc(-c2ccc(OCCN3CCOCC3)cc2)cn1)NCc1ccccc1` [TIRBANIBULIN]: the Kd in test [1], in test [2], in test [3], in test [4] and in test [5] was > 30 µM (inactive) in each case.
